The target of the assay is T1, Escherichia coli transketolase (TK) (Escherichia coli, UniProt P27302).
T1 construct: gene tktA; homodimer of 70- to 74-kDa monomers; holo enzyme with ThDP and Mg2+
Description: steady-state enzyme kinetics. In kind it is biochemical. The conditions noted are these: 50 mM Li-HPA (lithium beta-hydroxypyruvate, saturating), 4-80 mM glycolaldehyde.

T1 sequence (P27302 2-663): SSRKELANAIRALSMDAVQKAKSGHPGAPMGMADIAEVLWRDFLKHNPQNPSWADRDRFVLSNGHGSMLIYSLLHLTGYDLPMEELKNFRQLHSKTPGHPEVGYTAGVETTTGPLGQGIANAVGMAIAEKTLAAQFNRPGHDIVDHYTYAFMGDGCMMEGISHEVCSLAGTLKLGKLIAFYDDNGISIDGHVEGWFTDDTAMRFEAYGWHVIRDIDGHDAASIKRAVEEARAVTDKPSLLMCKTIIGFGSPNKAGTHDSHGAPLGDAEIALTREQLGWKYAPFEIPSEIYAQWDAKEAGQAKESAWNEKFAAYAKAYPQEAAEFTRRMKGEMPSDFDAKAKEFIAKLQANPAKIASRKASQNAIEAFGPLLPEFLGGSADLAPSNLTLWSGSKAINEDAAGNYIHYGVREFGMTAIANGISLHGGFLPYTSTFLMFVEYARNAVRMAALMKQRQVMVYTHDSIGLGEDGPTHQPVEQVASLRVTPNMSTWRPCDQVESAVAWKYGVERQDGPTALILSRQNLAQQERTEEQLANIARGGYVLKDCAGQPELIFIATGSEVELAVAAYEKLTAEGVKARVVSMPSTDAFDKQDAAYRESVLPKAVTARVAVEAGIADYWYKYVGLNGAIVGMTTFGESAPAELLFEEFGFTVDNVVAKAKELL

`O=CCO` [glycolaldehyde]: the Km (in general, the concentration of substrate that gives half-maximal velocity) came to 20.3 mM.

These data come from article PMC6255212, “Coupled molecular dynamics mediate long- and short-range epistasis between mutations that affect stability and aggregation kinetics” (Proceedings of the National Academy of Sciences of the …, 2018).
